Patent US8460712B2, “Prolonged release formulations comprising an 2-oxo-1-pyrrolidine derivate” (UCB Pharma, S.A., priority 2008, dated 2013)

Legend:
[1] = system: fully amygdala-kindled rats; assay: fully amygdala-kindled rats; format: in vivo; details: for dose from which significant suppression in motor-seizure severity was induced: rat, in vivo
GAERS rats = assay: spontaneous SWDs in GAERS rats; format: in vivo; details: for dose from which spontaneous SWDs were significantly suppressed: rat, in vivo
rat hippocampal slices [2] = assay: epileptiform responses in hippocampal slices induced by high-K+/low-Ca2+ fluid (HKLCF); format: cell-based, Sprague-Dawley rats; design: rate of spontaneous field bursting: dose or concentration left out as unconfirmed; details: for evoked epileptiform responses (PS1 amplitude, repetitive PSs per evoked burst): CA3 area, fimbrial stimulation, HKLCF perfusion; for rate of spontaneous field bursting: HKLCF
Protocol: The effect of brivaracetam on epileptiform responses induced by high-K+/low-Ca2+ concentrations or by bicuculline was examined in transverse hippocampal slices prepared from Sprague-Dawley rats according to previously reported standard procedures. The epileptiform responses were induced by passing from a normal perfusion of artificial cerebrospinal fluid (ACSF) (K+ 3 mM; Ca2+ 2.4 mM) to either high-K+/low-Ca2+ fluid (HKLCF) (K+ 7.5 mM; Ca2+ 0.5 mM) or to 5 M bicuculline methiodide (BMI)-containing ACSF.
Extracellular field potentials (FPs) were recorded in the CA3 area of the slices with 2 M NaCl-filled glass microelectrodes. The evoked FPs were recorded at 10-min intervals in response to fimbrial stimulation with constant current rectangular pulses that elicit a single population spike (PS) of 50-75% of the maximal amplitude when the slice is in ACSF. In the HKLCF model, 2 min of spontaneous activity were also recorded, in the middle of each 10-min interval between the recordings of evoked responses.
Either brivaracetam or levetiracetam was added to the bathing fluid of the slices 20 min before shifting from ACSF to either HKLCF or […] BMI-containing ACSF, and was kept in the perfusion fluid throughout the experiment.

mice [3] = assay: maximal electroshock in mice; format: in vivo; details: i.p. 30 min before seizure induction; higher ED50 than audiogenic
mice [4] = assay: corneal kindling of mice; format: in vivo; details: continued corneal stimulations after termination of treatment; group previously treated with the highest dose
mice [5] = assay: chemically induced seizures in mice (pentylenetetrazol); format: in vivo; details: i.p. 30 min before seizure induction; pentylenetetrazol 83 mg kg-1 s.c.; higher ED50 than audiogenic
Protocol: The dose was selected based on dose-effect curves in saline-treated animals as the convulsive dose inducing clonic convulsions of all four extremities in 97% of the animals. Immediately after administration of the chemoconvulsant, the mice were placed individually in small plastic cages (25 13 8 cm) and observed for the presence of clonic convulsions in all four extremities, for 60 min. The occurrence of tonic convulsions (hindlimb extension) and mortality was also recorded during this interval. The proportion of mice protected against clonic convulsions was calculated and used as the end point for anticonvulsant activity.

[6] = system: genetically sound-sensitive male mice; assay: audiogenic seizures in mice; format: in vivo; details: acoustic stimulus 90 dB, 30 s; brivaracetam i.p. 30 min, levetiracetam i.p. 60 min before
Protocol: Audiogenic seizures in mice: Genetically sound-sensitive male mice (16-28 g; n=10 per group), responding with wild running, clonic and tonic convulsions to an acoustic stimulation, were used. Audiogenic seizures were induced by an acoustic stimulus (90 dB, 10-20 kHz) applied for 30 s. The mice were pretreated with either saline, brivaracetam (i.p., 30 min) or levetiracetam (i.p., 60 min), and the proportion of mice protected against clonic convulsions was used as the end point to assess anticonvulsant activity.

rat hippocampal slices [7] = details: background statement; cited from earlier work
rat hippocampal slices [8] = details: background statement; cited from earlier work; remark: listed apart in the source

Row | Structure (SMILES) | after-discharge duration ([1]; highest dose tested, 212.3 mg kg-1) | dose from which significant suppression in motor-seizure severity was induced [1] [mg/kg] | inhibition of spontaneous SWDs (GAERS rats; highest dose tested, 67.9 mg kg-1) | dose from which spontaneous SWDs were significantly suppressed (GAERS rats) [mg/kg] | evoked epileptiform responses (PS1 amplitude, repetitive PSs per evoked burst) (rat hippocampal slices [2]) | rate of spontaneous field bursting (rat hippocampal slices [2]) | protection against tonic hindlimb extension induced by a maximal electroshock (mice [3]) | incidence of generalized motor seizures (mice [4]) | solubility (water solubility) [mg/mL] | protection against clonic convulsions induced by pentylenetetrazol (mice [5]) | protection against the expression of clonic convulsions [6] | after-discharge duration ([1]; up to 1700 mg kg-1) | epileptiform responses induced by high-K+/low-Ca2+ concentrations (rat hippocampal slices [7]) | epileptiform responses induced by bicuculline (rat hippocampal slices [8])
1 | CCC[C@@H]1CC(=O)N([C@@H](CC)C(N)=O)C1 [Brivaracetam, (2S)-2-[(4R)-2-oxo-4-propyl-pyrrolidin-1-yl] butanamide] | significantly reduced | ≥ 21.2 | complete inhibition | ≥ 2.1 | reduced | reduced | protected | persistent reduction | > 500 | protected | protected | – | – | –
2 | CC[C@@H](C(N)=O)N1CCCC1=O [Levetiracetam, (S)-(−)-alpha-ethyl-2-oxo-1-pyrrolidine acetamide] | – | ≥ 170 | – | ≥ 5.4 | reduced | not | – | – | – | – | protected | inactive | reduces | reduces
3 | CC[C@@H](C(N)=O)N1C[C@H](C=C(F)F)CC1=O [Seletracetam, (2S)-2-[(4S)-4-(2,2-difluorovinyl)-2-oxo-pyrrolidin-1-yl]butanamide] | – | – | – | – | – | – | – | – | > 500 | – | – | – | – | –
